What was measured:
Assay type in all cases: cell-based
Conditions in all cases: 24 hours of compound treatment
CK1α = molecular target: T1, CK1α (Homo sapiens, UniProt P48729+Q96SW2); experiment: Western-blot assay of substrate protein degradation in hPBMCs, CK1α
T1 construct: endogenous in cells; host or cells: hPBMCs (Milecell Biotechnologies)

IKZF3 = molecular target: T2, IKZF3 (Homo sapiens, UniProt Q96SW2+Q9UKT9); experiment: Western-blot assay of substrate protein degradation in hPBMCs, IKZF3
T2 construct: endogenous in cells; host or cells: hPBMCs (Milecell Biotechnologies)

IKZF1 = molecular target: T3, IKZF1 (Homo sapiens, UniProt Q13422+Q96SW2); experiment: Western-blot assay of substrate protein degradation in hPBMCs, IKZF1
T3 construct: endogenous in cells; host or cells: hPBMCs (Milecell Biotechnologies)

GSPT1 = molecular target: T4, GSPT1 (Homo sapiens, UniProt P15170+Q96SW2); experiment: Western-blot assay of substrate protein degradation in hPBMCs, GSPT1
T4 construct: endogenous in cells; host or cells: hPBMCs (Milecell Biotechnologies)

WEE1 = molecular target: T5, WEE1 (Homo sapiens, UniProt P30291+Q96SW2); experiment: Western-blot assay of substrate protein degradation in hPBMCs, WEE1
T5 construct: endogenous in cells; host or cells: hPBMCs (Milecell Biotechnologies)

IKZF2 = molecular target: T6, IKZF2 (Homo sapiens, UniProt Q96SW2+Q9UKS7); experiment: Western-blot assay of substrate protein degradation in hPBMCs, IKZF2
T6 construct: endogenous in cells; host or cells: hPBMCs (Milecell Biotechnologies)

[1] = 50 nM and 500 nM tested (concentration behind the class not stated)
[2] = compounds tested at 50 nM and 500 nM (concentration of the table not stated)

T2 sequence (Q9UKT9 whole entry): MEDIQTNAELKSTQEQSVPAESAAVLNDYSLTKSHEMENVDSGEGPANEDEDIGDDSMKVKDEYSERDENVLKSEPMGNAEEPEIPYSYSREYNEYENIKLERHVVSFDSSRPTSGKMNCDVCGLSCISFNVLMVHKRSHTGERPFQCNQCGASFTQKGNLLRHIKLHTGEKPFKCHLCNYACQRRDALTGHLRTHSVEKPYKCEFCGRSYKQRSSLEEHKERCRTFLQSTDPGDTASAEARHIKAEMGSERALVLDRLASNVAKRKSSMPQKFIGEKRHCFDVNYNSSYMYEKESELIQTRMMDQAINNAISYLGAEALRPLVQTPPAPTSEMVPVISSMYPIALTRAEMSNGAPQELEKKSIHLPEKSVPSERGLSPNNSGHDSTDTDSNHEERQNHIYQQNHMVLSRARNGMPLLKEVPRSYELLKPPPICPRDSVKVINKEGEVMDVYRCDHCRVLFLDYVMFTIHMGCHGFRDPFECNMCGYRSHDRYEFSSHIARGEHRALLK
T2 sequence (Q96SW2 whole entry): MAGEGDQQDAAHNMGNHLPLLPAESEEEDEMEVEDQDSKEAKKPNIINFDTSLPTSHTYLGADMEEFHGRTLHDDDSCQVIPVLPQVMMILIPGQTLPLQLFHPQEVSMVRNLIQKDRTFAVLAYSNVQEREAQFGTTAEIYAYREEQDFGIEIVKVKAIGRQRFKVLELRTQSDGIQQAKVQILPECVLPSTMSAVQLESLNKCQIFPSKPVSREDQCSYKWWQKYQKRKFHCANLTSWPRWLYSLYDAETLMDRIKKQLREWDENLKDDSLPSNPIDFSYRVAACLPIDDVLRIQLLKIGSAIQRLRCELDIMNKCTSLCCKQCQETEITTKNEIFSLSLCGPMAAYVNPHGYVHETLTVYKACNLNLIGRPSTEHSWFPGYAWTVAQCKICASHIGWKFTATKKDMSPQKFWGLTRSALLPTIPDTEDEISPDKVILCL
T2 sequence (Q16531 whole entry partner): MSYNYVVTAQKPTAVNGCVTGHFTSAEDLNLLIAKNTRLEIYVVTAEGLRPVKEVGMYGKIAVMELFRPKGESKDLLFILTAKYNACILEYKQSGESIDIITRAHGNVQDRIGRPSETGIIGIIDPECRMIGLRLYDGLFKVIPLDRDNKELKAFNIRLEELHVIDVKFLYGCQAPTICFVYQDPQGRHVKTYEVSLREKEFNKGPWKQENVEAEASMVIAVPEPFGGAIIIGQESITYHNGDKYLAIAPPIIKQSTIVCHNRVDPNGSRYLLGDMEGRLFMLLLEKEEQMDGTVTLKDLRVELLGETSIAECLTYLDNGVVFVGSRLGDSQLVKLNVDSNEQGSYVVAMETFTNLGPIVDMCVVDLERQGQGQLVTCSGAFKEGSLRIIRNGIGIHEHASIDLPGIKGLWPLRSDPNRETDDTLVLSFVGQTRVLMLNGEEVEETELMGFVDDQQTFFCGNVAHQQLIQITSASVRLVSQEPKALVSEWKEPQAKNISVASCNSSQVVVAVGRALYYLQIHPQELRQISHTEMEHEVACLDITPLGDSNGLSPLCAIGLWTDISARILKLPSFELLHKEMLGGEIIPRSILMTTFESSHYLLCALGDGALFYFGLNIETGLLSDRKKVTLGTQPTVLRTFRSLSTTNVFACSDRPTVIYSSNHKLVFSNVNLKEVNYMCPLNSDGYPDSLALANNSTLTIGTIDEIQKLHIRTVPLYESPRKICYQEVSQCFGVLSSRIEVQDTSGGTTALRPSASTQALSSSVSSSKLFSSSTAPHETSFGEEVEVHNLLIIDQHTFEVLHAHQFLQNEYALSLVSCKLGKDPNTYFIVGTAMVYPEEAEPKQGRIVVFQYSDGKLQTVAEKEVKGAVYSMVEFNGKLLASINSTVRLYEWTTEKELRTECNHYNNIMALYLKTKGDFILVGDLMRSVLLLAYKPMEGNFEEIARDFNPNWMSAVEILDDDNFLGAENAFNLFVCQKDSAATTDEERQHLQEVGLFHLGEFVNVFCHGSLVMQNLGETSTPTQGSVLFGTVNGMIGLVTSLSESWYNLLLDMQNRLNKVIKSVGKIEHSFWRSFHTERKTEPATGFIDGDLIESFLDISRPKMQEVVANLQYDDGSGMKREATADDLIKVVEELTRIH
T3 sequence (Q13422 whole entry): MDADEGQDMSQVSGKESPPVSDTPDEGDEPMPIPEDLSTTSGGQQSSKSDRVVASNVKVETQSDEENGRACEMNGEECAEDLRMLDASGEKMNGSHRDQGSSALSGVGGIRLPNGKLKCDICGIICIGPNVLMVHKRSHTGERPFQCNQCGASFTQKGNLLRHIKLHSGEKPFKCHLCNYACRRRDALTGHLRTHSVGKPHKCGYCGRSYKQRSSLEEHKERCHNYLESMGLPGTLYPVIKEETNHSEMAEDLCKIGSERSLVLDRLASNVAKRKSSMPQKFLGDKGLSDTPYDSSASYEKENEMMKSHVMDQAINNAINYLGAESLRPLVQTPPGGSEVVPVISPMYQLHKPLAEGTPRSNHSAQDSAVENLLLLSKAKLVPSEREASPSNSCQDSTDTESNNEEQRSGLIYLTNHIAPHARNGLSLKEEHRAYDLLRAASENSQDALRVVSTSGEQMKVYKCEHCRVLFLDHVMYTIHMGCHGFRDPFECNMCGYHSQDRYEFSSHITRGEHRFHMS
T3 sequence (Q96SW2 whole entry): as the sequence (Q96SW2 whole entry) above
T3 sequence (Q16531 whole entry partner): as the sequence (Q16531 whole entry partner) above
T4 sequence (P15170 whole entry): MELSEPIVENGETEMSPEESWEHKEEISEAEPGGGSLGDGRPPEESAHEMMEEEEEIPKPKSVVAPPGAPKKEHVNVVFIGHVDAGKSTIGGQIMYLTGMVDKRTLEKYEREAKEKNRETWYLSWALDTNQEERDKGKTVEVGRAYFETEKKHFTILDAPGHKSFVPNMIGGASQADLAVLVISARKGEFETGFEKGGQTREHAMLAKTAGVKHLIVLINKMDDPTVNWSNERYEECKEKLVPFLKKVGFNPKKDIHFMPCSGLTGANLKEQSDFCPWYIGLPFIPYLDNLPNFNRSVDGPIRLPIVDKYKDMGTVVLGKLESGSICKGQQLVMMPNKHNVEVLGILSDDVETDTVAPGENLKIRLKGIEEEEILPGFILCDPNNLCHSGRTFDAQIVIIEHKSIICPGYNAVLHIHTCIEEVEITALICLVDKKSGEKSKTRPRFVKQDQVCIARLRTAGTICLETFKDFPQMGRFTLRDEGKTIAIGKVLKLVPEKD
T4 sequence (Q96SW2 whole entry): as the sequence (Q96SW2 whole entry) above
T4 sequence (Q16531 whole entry partner): as the sequence (Q16531 whole entry partner) above
T5 sequence (P30291 whole entry): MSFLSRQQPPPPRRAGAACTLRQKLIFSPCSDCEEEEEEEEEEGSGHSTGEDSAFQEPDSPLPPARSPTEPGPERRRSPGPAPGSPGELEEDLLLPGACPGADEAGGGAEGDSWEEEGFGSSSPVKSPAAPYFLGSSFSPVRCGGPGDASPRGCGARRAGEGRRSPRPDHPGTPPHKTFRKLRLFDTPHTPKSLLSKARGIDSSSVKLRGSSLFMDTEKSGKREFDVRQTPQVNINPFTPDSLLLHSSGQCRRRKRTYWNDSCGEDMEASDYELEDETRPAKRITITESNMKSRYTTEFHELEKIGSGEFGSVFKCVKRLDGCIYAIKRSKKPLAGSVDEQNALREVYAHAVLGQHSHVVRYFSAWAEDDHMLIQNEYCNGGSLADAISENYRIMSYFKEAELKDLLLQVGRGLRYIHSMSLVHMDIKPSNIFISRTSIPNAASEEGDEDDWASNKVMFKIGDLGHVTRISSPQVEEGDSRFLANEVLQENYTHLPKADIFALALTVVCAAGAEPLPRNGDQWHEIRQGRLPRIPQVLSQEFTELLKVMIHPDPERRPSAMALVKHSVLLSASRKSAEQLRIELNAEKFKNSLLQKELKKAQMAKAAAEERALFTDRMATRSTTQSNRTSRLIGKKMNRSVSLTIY
T5 sequence (Q96SW2 whole entry): as the sequence (Q96SW2 whole entry) above
T5 sequence (Q16531 whole entry partner): as the sequence (Q16531 whole entry partner) above
T1 sequence (P48729 whole entry): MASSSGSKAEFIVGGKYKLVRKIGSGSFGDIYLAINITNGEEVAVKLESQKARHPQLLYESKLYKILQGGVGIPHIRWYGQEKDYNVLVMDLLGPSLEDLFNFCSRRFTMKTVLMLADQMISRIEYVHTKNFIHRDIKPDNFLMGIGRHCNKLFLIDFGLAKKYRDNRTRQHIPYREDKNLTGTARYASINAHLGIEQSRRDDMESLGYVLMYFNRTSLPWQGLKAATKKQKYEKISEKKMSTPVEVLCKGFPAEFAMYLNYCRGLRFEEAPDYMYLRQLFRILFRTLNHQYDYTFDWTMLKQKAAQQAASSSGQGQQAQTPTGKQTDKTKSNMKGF
T1 sequence (Q96SW2 whole entry): as the sequence (Q96SW2 whole entry) above
T1 sequence (Q16531 whole entry partner): as the sequence (Q16531 whole entry partner) above

| SMILES | CK1a substrate protein remaining % (CK1α; [1]) | IKZF3 substrate protein remaining % (IKZF3; [1]) | IKZF 1 substrate protein remaining % (IKZF1; [1]) | GSPT1 substrate protein remaining % (GSPT1; [1]) | Weel substrate protein remaining % (WEE1; [1]) | IKZF2 substrate protein remaining % (IKZF2; [1]) | CK1a substrate protein remaining % (CK1α; [2]) | IKZF3 substrate protein remaining % (IKZF3; [2]) | IKZF 1 substrate protein remaining % (IKZF1; [2]) | GSPT1 substrate protein remaining % (GSPT1; [2]) | Weel substrate protein remaining % (WEE1; [2]) | IKZF2 substrate protein remaining % (IKZF2; [2]) |
| --- | --- | --- | --- | --- | --- | --- | --- | --- | --- | --- | --- | --- |
| O=C1CCC(N2C(=O)c3ccc(CN4CCN(c5ccncc5Br)CC4)cc3C2=O)C(=O)N1 (stereo not drawn) [GT-06556, 5-((4-(3-bromopyridin-4-yl)piperazin-1-yl)methyl)-2-(2,6-dioxopiperidin-3-yl)isoindoline-1,3-dione] | B (80%< substrate protein remaining %≤ 100%) | B (80%< substrate protein remaining %≤ 100%) | B (80%< substrate protein remaining %≤ 100%) | A (0% ≤ substrate protein remaining % ≤ 80%) | B (80%< substrate protein remaining %≤ 100%) | A (0% ≤ substrate protein remaining % ≤ 80%) |  |  |  |  |  |  |
| O=C1CCC(N2C(=O)c3ccc(CN4CCN(c5cccc(F)c5)CC4)cc3C2=O)C(=O)N1 (stereo not drawn) [GT-06291, 2-(2,6-dioxopiperidin-3-yl)-5-((4-(3-fluorophenyl)piperazin-1-yl)methyl)isoindoline-1,3-dione] | B (80%< substrate protein remaining %≤ 100%) | B (80%< substrate protein remaining %≤ 100%) | B (80%< substrate protein remaining %≤ 100%) | A (0% ≤ substrate protein remaining % ≤ 80%) | B (80%< substrate protein remaining %≤ 100%) | B (80%< substrate protein remaining %≤ 100%) |  |  |  |  |  |  |
| O=C1CCC(N2C(=O)c3ccc(CN4CC=C(c5cccc6cnccc56)CC4)cc3C2=O)C(=O)N1 (stereo not drawn) [GT-06268, 2-(2,6-dioxopiperidin-3-yl)-5-((4-(isoquinolin-5-yl)-3,6-dihydropyridin-1(2H)-yl)methyl)isoindoline-1,3-dione] |  |  |  |  |  |  | A (0% ≤ substrate protein remaining % ≤ 80%) | A (0% ≤ substrate protein remaining % ≤ 80%) | B (80%< substrate protein remaining %≤ 100%) | A (0% ≤ substrate protein remaining % ≤ 80%) | A (0% ≤ substrate protein remaining % ≤ 80%) | A (0% ≤ substrate protein remaining % ≤ 80%) |
| O=C1CCC(N2C(=O)c3ccc(CN4C5CC4CN(c4cccc(Cl)c4Cl)C5)cc3C2=O)C(=O)N1 (stereo not drawn) [GT-06688, 5-((3-(2,3-dichlorophenyl)-3,6-diazabicyclo[3.1.1]heptan-6-yl)methyl)-2-(2,6-dioxopiperidin-3-yl)isoindoline-1,3-dione] | B (80%< substrate protein remaining %≤ 100%) | B (80%< substrate protein remaining %≤ 100%) | B (80%< substrate protein remaining %≤ 100%) | A (0% ≤ substrate protein remaining % ≤ 80%) | B (80%< substrate protein remaining %≤ 100%) | B (80%< substrate protein remaining %≤ 100%) |  |  |  |  |  |  |
| O=C1CCC(N2C(=O)c3ccc(CN4CCN(c5ccc(C(F)(F)F)cc5)CC4)cc3C2=O)C(=O)N1 (stereo not drawn) [GT-06290, 2-(2,6-dioxopiperidin-3-yl)-5-((4-(4-(trifluoromethyl)phenyl)piperazin-1-yl)methyl)isoindoline-1,3-dione] | B (80%< substrate protein remaining %≤ 100%) | B (80%< substrate protein remaining %≤ 100%) | B (80%< substrate protein remaining %≤ 100%) | A (0% ≤ substrate protein remaining % ≤ 80%) | B (80%< substrate protein remaining %≤ 100%) | B (80%< substrate protein remaining %≤ 100%) |  |  |  |  |  |  |
